Data from ChEMBL document CHEMBL1126274, “Mapping the binding site of tissue kallikrein: preparation and testing of all possible substrate analog inhibitors homologous with the sequence of kininogen between Ser386 and Gln392” (J Med Chem, 1992).
pKi: −log10 of the molar value. Residues, ends and D or L forms follow the SMILES beside them.

Tests used:
[1] = biological target: T1, Kallikrein 1 (Sus scrofa) (UniProt O97506); assay: Compound was evaluated for inhibitory activity against beta-kallikrein; No inhibition at 20 mM concentration
T1 sequence (whole entry): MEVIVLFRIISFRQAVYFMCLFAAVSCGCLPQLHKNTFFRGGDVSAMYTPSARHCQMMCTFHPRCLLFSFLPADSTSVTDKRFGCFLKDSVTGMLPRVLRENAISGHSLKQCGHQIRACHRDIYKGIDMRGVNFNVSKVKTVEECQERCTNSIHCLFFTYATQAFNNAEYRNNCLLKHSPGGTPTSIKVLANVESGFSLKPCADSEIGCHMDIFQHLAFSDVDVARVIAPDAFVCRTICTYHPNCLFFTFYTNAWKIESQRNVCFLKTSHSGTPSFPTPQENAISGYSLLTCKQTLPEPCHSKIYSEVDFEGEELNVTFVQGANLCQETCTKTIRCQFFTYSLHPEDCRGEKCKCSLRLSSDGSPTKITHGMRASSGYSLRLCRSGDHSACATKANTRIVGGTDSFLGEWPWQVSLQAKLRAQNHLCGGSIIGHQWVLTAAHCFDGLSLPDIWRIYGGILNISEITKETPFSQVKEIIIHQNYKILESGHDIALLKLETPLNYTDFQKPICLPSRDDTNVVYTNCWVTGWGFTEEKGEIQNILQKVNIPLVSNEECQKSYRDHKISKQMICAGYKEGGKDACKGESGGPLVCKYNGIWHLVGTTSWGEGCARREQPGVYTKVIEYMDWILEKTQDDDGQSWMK

[2] = biological target: T1, Kallikrein 1 (Sus scrofa); assay: Compound was evaluated for inhibitory activity against beta-kallikrein; No inhibition at 0.5 mM concentration
Glandular kallikrein = biological target: T2, Glandular kallikrein (Sus scrofa, UniProt P00752); assay: Inhibitory activity against beta-kallikrein
T2 sequence (P00752 whole entry): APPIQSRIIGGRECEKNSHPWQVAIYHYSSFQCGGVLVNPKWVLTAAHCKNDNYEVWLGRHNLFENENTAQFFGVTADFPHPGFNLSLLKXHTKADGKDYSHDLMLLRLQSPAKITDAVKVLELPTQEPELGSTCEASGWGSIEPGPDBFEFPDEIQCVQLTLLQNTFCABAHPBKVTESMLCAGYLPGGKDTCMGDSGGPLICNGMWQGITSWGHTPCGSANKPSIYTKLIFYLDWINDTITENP

[3] = biological target: T1, Kallikrein 1 (Sus scrofa); assay: Compound was evaluated for inhibitory activity against beta-kallikrein; No inhibition at 1 mM concentration
[4] = biological target: T1, Kallikrein 1 (Sus scrofa); assay: Compound was evaluated for inhibitory activity against beta-kallikrein; No inhibition at 28 mM concentration

Compound	pKi (Glandular kallikrein)	other results
CC(=O)N[C@@H](CO)C(=O)N[C@H](C(=O)N[C@@H](CCC(N)=O)C(N)=O)C(C)C (Ac-Ser-Val-Gln-NH2)	–	inhibition [1]: No inhibition
CC(=O)N[C@@H](CO)C(=O)N1CCC[C@H]1C(N)=O (Ac-Ser-Pro-NH2)	–	inhibition [2]: No inhibition
CC(=O)N[C@@H](CO)C(=O)N1CCC[C@H]1C(=O)N[C@@H](Cc1ccccc1)C(=O)N[C@@H](CCCN=C(N)N)C(N)=O (Ac-SPFR-NH2)	2.64	–
CC(=O)N[C@@H](Cc1ccccc1)C(=O)N[C@@H](CCCN=C(N)N)C(N)=O (Ac-Phe-Arg-NH2)	–	inhibition [3]: No inhibition
CC(=O)N[C@@H](Cc1ccccc1)C(=O)N[C@@H](CCCNC(=N)N)C(=O)N[C@@H](CO)C(N)=O (Ac-Phe-Arg-Ser-NH2)	3.14	–
Ac-SPFRS-NH2	3.65	–
CC(=O)N1CCC[C@H]1C(=O)N[C@@H](Cc1ccccc1)C(N)=O (Ac-Pro-Phe-NH2)	–	inhibition [3]: No inhibition
Ac-PFRSV-NH2	3.58	–
CC(=O)N[C@@H](CCCN=C(N)N)C(=O)N[C@@H](CO)C(=O)N[C@H](C(N)=O)C(C)C (Ac-Arg-Ser-Val-NH2)	–	inhibition [2]: No inhibition
CC(=O)N[C@@H](Cc1ccccc1)C(=O)N[C@@H](CCCNC(=N)N)C(=O)N[C@@H](CO)C(=O)N[C@H](C(N)=O)C(C)C (Ac-FRSV-NH2)	3.32	–
CC(=O)N[C@@H](CO)C(=O)N[C@H](C(N)=O)C(C)C (Ac-Ser-Val-NH2)	–	inhibition [2]: No inhibition
CC(=O)N1CCC[C@H]1C(=O)N[C@@H](Cc1ccccc1)C(=O)N[C@@H](CCCN=C(N)N)C(N)=O (Ac-Pro-Phe-Arg-NH2)	–	inhibition [2]: No inhibition
CC(=O)N[C@@H](CCCN=C(N)N)C(=O)N[C@@H](CO)C(N)=O (Ac-Arg-Ser-NH2)	–	inhibition [2]: No inhibition
CC(=O)N[C@@H](CO)C(=O)N1CCC[C@H]1C(=O)N[C@@H](Cc1ccccc1)C(N)=O (Ac-Ser-Pro-Phe-NH2)	–	inhibition [2]: No inhibition
Ac-FRSVQ-NH2	3.64	–
CC(=O)N[C@H](C(=O)N[C@@H](CCC(N)=O)C(N)=O)C(C)C (Ac-Val-Gln-NH2)	–	inhibition [4]: No inhibition

Now from value to compound, other results behind:

pKi (Glandular kallikrein)	Compound	other results
3.78	Ac-PFRSVQ-NH2	–
3.87	Ac-SPFRSV-NH2	–
4.00	Ac-SPFRSVQ-NH2	–
3.02	CC(=O)N[C@@H](CCCNC(=N)N)C(=O)N[C@@H](CO)C(=O)N[C@H](C(=O)N[C@@H](CCC(N)=O)C(N)=O)C(C)C (Ac-RSVQ-NH2)	–
3.24	CC(=O)N1CCC[C@H]1C(=O)N[C@@H](Cc1ccccc1)C(=O)N[C@@H](CCCN=C(N)N)C(=O)N[C@@H](CO)C(N)=O (Ac-PFRS-NH2)	–
